Source: ChEMBL document CHEMBL1157204, “Synthesis and structure-activity relationship of histone deacetylase (HDAC) inhibitors with triazole-linked cap group” (Bioorg Med Chem, 2008)

Experiments:
Histone deacetylase = experiment: Inhibition of human HDAC in HeLa cells by flour de lys assay; assay type: cell-based
DU-145 [1] = experiment: Viability of human DU145 cells after 72 hrs by trypan blue staining; assay type: functional, cell-based; conditions: DU-145, 72 h
DU-145 [2] = experiment: Viability of human DU145 cells after 72 hrs by MTS assay; assay type: functional, cell-based; conditions: DU-145, 72 h

| Structure (SMILES) | IC50 (Histone deacetylase) [µM] | EC50 (DU-145 [1]) [µM] | EC50 (DU-145 [2]) [µM] |
| --- | --- | --- | --- |
| O=C(CCCCCCn1cc(-c2ccccn2)nn1)NO | 0.0239 |  |  |
| CN(C)c1ccc(-c2cn(CCCCCCC(=O)NO)nn2)cc1 | 0.1061 |  |  |
| O=C(CCCCCn1cc(-c2ccc3ccccc3n2)nn1)NO | 0.0021 | 2.25 | 2.46 |
| O=C(CCCCCn1cc(-c2cccc(-c3ccccc3)c2)nn1)NO | 0.0019 |  |  |
| O=C(CCCCCCn1cc(-c2ccccc2)nn1)NO | 0.0096 |  |  |
| O=C(CCCCCn1cc(-c2ccc(-c3ccccc3)cc2)nn1)NO | 0.0524 |  |  |
| Cc1ccccc1-c1cn(CCCCCC(=O)NO)nn1 | 0.0174 |  |  |
| O=C(CCCCCn1cc(-c2cccs2)nn1)NO | 0.0317 |  |  |
| COc1ccccc1-c1cn(CCCCCC(=O)NO)nn1 | 0.076 |  |  |
| COc1cccc(OC)c1-c1cn(CCCCCC(=O)NO)nn1 | 0.3159 |  |  |
| COc1ccc2cc(-c3cn(CCCCCC(=O)NO)nn3)ccc2c1 | 0.0018 | 3.95 | 2.6 |
| O=C(CCCCCCn1cc(-c2ccc(-c3ccncc3)cc2)nn1)NO | 0.0166 |  |  |
| CN(C)c1ccc(-c2cn(CCCCCC(=O)NO)nn2)cc1 | 0.0043 |  |  |
| COc1ccc2cc(-c3cn(CCCCCCC(=O)NO)nn3)ccc2c1 | 0.0153 | 7.76 | 3.99 |
| COc1ccc(-c2cn(CCCCCC(=O)NO)nn2)cc1 | 0.00209 |  |  |
| O=C(CCCCCn1cc(-c2ccncc2)nn1)NO | 0.1125 |  |  |
| O=C(CCCCCn1cc(-c2ccc(-c3ccncc3)cc2)nn1)NO | 0.0023 | 4.72 | 3.07 |
| Cc1cccc(-c2cn(CCCCCC(=O)NO)nn2)c1 | 0.0319 |  |  |
| O=C(CCCCCn1cc(-c2ccccc2-c2ccccc2)nn1)NO | 0.1626 |  |  |
| Cc1ccc(-c2cn(CCCCCC(=O)NO)nn2)cc1 | 0.0434 |  |  |
| O=C(CCCCCn1cc(-c2cccnc2)nn1)NO | 0.2872 |  |  |
| O=C(CCCCCn1cc(-c2ccc3cccnc3c2)nn1)NO | 0.1515 |  |  |
| COc1cccc(-c2cn(CCCCCC(=O)NO)nn2)c1 | 0.0139 |  |  |
| O=C(CCCCCCC(=O)Nc1ccccc1)NO [VORINOSTAT] |  | 2.12 |  |
| O=C(CCCCCCn1cc(-c2cccc(-c3ccccc3)c2)nn1)NO | 0.0054 |  |  |
| O=C(CCCCCn1cc(-c2ccccc2)nn1)NO | 0.0142 |  |  |
